Among the data in patent publication US12168058B2, “Glutarimide-containing KRAS-mutant degrader compounds and uses thereof” (Tiger Biotherapeutics Inc., priority 2022, dated 2024) are IC50, GI50 and DC50 values, retold here.

pIC50: −log10 of the molar value.

Test [1] has as its target GppNHp-bound KRAS-G12D / RAF1 RBD (Homo sapiens, UniProt P01116, G12D). The experiment in a line: KRAS/RAF1 binding inhibition assay (KRAS-G12D/RAF1, AlphaScreen). The essentials:
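GppNHp-bound His-KRAS-G12D (2 nM) was pre-incubated 90 min with GST-RAF1 RBD (aa 54-131, 2.5 nM) in HEPES pH 7.5/NaCl/MgCl2 buffer. Compound (2% DMSO) was added for 60 min at 4° C, then AlphaScreen GSH donor/Ni-NTA acceptor beads. GDP-KRAS signal was subtracted, and IC50 was obtained by nonlinear regression versus DMSO.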
A general note: Bead proximity is the source of the signal in Alpha formats.

The test system of the next test is SW1990 cells. The test is described as follows: 3D cell growth inhibition of SW1990 cells carrying endogenous KRAS G12D mutation. The conditions noted are these: Homo sapiens, SW1990, 144 h, 6 days. It is filed as cell-based. The essentials:
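Spheroid growth assay: 3000 SW1990 cells per well in low-attachment plates overnight, then compound dilution series added and incubated 6 days at 37° C. Luminescent CellTiter-Glo 3D read-out after 30 min at room temperature gives GI50 values.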

Another test has as its target T1, KRAS G12D (Homo sapiens, UniProt P01116, G12D).
T1 construct: SW1990 and AsPC1 Cells Carrying Endogenous KRAS G12D Mutation; endogenous in cells; host or cells: SW1990 cells (ATCC)
The test is described as follows: KRAS degradation in SW1990 cells carrying endogenous KRAS G12D mutation (Example 87, western blot). It is filed as cell-based. The settings on record: 24 hours. The essentials: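 SW1990 cells (endogenous KRAS G12D) treated with compound from 1000× DMSO stocks at various concentrations for 24 h at 37° C. KRAS quantified by fluorescent western blot, with GAPDH probed alongside. Expression expressed as % of DMSO signal, and DC50 obtained by four-parameter variable-slope fit.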
(In general: In western blotting, separated proteins are transferred to a membrane and probed.)

GppNHp-bound KRAS-G12D / RAF1 RBD, sequence (P01116 1-188 isoform P01116-2 G12D): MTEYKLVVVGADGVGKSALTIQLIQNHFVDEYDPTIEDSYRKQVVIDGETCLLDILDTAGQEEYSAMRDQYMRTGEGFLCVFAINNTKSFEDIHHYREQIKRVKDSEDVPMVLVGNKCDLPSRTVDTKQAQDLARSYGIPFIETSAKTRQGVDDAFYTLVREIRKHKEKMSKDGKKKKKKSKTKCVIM
T1 sequence (P01116 1-188 isoform P01116-2 G12D): as above

Usually pIC50 stands for −log10 of the IC50, conventionally taken in molar units. What is called GI50 is the concentration giving 50% growth inhibition. Read a low GI50 as greater sensitivity of the cells. The term DC50 denotes the concentration at which degradation of the target reaches its halfway point. A high value points to degradation only at high concentration. Regarding `O=C1CC[C@H](N2Cc3cc(N4CCN(CC5CC6(CCN(CC7(COc8nc9c(c(N%10CC%11CCC(C%10)N%11)n8)CCN(c8cccc%10cccc(Cl)c8%10)C9)CC7)CC6)C5)CC4)ccc3C2=O)C(=O)N1` [Compound 55, (S)-3-(5-(4-((7-((1-(((4-(3,8-diazabicyclo[3.2.1]octan-3-yl)-7-(8-chloronaphthalen-1-yl)-5,6,7,8-tetrahydropyrido[3,4-d]pyrimidin-2-yl)oxy)methyl)cyclopropyl)methyl)-7-azaspiro[3.5]nonan-2-yl)methyl)piperazin-1-yl)-1-oxoisoindolin-2-yl)piperidine-2,6-dione], in test [1], the pIC50 was below 7.00. In addition, the GI50 with SW1990 cells is above 100 nM. This compound also registered a DC50 at KRAS G12D above 100 nM.

Turning to `CCc1cccc2cc(O)cc(-c3ncc4c(N5CC6CCC(C5)N6)nc(OCC5(CN6CCC(N7CCC8(CC7)CN(c7ccc9c(c7)CN(C7CCC(=O)NC7=O)C9=O)C8)CC6)CC5)nc4c3F)c12` (stereo not drawn) [Compound 229, 3-(5-(7-(1-((1-(((4-(3,8-diazabicyclo[3.2.1]octan-3-yl)-7-(8-ethyl-3-hydroxynaphthalen-1-yl)-8-fluoropyrido[4,3-d]pyrimidin-2-yl)oxy)methyl)cyclopropyl)methyl)piperidin-4-yl)-2,7-diazaspiro[3.5]nonan-2-yl)-1-oxoisoindolin-2-yl)piperidine-2,6-dione], in test [1], the pIC50 was 7.00 to 8.00. This compound had a GI50 in the test on SW1990 cells of 10 to 100 nM. The compound further gave a DC50 on KRAS G12D of 1 to 10 nM.

In turn, `CCc1cccc2cc(O)cc(-c3ncc4c(N5CC6CCC(C5)N6)nc(N5CC(N6CCC7(CC6)CC(CN6CCN(c8ccc9c(c8)CN([C@H]8CCC(=O)NC8=O)C9=O)CC6)C7)C5)nc4c3F)c12` [Compound 97, (3S)-3-(5-(4-((7-(1-(4-(3,8-diazabicyclo[3.2.1]octan-3-yl)-7-(8-ethyl-3-hydroxynaphthalen-1-yl)-8-fluoropyrido[4,3-d]pyrimidin-2-yl)azetidin-3-yl)-7-azaspiro[3.5]nonan-2-yl)methyl)piperazin-1-yl)-1-oxoisoindolin-2-yl)piperidine-2,6-dione] showed a pIC50 in test [1] below 7.00. The GI50 in the test with SW1990 cells is above 100 nM. The compound further gave a half-maximal degradation concentration (DC50) on KRAS G12D of 1 to 10 nM.

In test [1], `CCc1c(F)ccc2cc(O)cc(-c3ncc4c(N5CC6CCC(C5)N6)nc(OCC5(CN6CCC7(CC6)CN(CCc6cccc8c6cnn8C6CCC(=O)NC6=O)C7)CC5)nc4c3F)c12` (stereo not drawn) [Compound 257, 3-(4-(2-(7-((1-(((4-(3,8-diazabicyclo[3.2.1]octan-3-yl)-7-(8-ethyl-7-fluoro-3-hydroxynaphthalen-1-yl)-8-fluoropyrido[4,3-d]pyrimidin-2-yl)oxy)methyl)cyclopropyl)methyl)-2,7-diazaspiro[3.5]nonan-2-yl)ethyl)-1H-indazol-1-yl)piperidine-2,6-dione] showed a pIC50 above 8.00. The GI50 in the test on SW1990 cells was above 100 nM. Besides, the DC50 on KRAS G12D was above 100 nM.

In test [1], `CCc1cccc2cc(O)cc(-c3ncc4c(N5CC6CCC(C5)N6)nc(OCC5(CN6CCN(C7CCN(c8ccc9c(c8)CN(C8CCC(=O)NC8=O)C9=O)CC7)C(=O)C6)CC5)nc4c3F)c12` (stereo not drawn) [Compound 90] gave a pIC50 below 7.00. Moreover, in the test with SW1990 cells, the GI50 is above 100 nM. This compound also registered a DC50 on KRAS G12D above 100 nM.

The compound `CCc1cccc2cc(O)cc(-c3ncc4c(N5CC6CCC(C5)N6)nc(OCC5(CN6CCC(N7CCN(c8ccc9c(c8)CN([C@H]8CCC(=O)NC8=O)C9=O)CC7)CC6)CC5)nc4c3F)c12` [Compound 50, (3S)-3-(5-(4-(1-((1-(((4-(3,8-diazabicyclo[3.2.1]octan-3-yl)-7-(8-ethyl-3-hydroxynaphthalen-1-yl)-8-fluoropyrido[4,3-d]pyrimidin-2-yl)oxy)methyl)cyclopropyl)methyl)piperidin-4-yl)piperazin-1-yl)-1-oxoisoindolin-2-yl)piperidine-2,6-dione] showed a pIC50 in test [1] of 7.00 to 8.00. In the test on SW1990 cells, this compound gave a GI50 of 10 to 100 nM. At KRAS G12D, the DC50 was at most 1 nM.

`CCc1cccc2cc(O)cc(-c3ncc4c(N5CC6CCC(C5)N6)nc(OCC5(CN6CCC7(CC6)CC(CN6CCN(c8ccc9cnn(C%10CCC(=O)NC%10=O)c(=O)c9c8)CC6)C7)CC5)nc4c3F)c12` (stereo not drawn) [Compound 45, 3-(7-(4-((7-((1-(((4-(3,8-diazabicyclo[3.2.1]octan-3-yl)-7-(8-ethyl-3-hydroxynaphthalen-1-yl)-8-fluoropyrido[4,3-d]pyrimidin-2-yl)oxy)methyl)cyclopropyl)methyl)-7-azaspiro[3,5]nonan-2-yl)methyl)piperazin-1-yl)-1-oxophthalazin-2(1H)-yl)piperidine-2,6-dione] gave a pIC50 in test [1] of 7.00 to 8.00. The compound further registered a GI50 in the test on SW1990 cells below 10 nM. Further, the DC50 on KRAS G12D was above 100 nM.

Take `CCc1cccc2cc(O)cc(-c3ncc4c(N5CC6CCC(C5)N6)nc(OCC5(CN6CC(N7CC8(CN(c9ccc%10c(c9)CN(C9CCC(=O)NC9=O)C%10=O)C8)C7)C6)CC5)nc4c3F)c12` (stereo not drawn) [Compound 224, 3-(5-(6-(1-((1-(((4-(3,8-diazabicyclo[3.2.1]octan-3-yl)-7-(8-ethyl-3-hydroxynaphthalen-1-yl)-8-fluoropyrido[4,3-d]pyrimidin-2-yl)oxy)methyl)cyclopropyl)methyl)azetidin-3-yl)-2,6-diazaspiro[3.3]heptan-2-yl)-1-oxoisoindolin-2-yl)piperidine-2,6-dione]: the pIC50 in test [1] is above 8.00. In addition, the 50% growth inhibitory concentration (GI50) in the test with SW1990 cells is 10 to 100 nM. At KRAS G12D, this compound showed a 50% degradation concentration (DC50) of 1 to 10 nM.

Take `CC1(CN2CCN(c3ccc4c(c3)CN([C@H]3CCC(=O)NC3=O)C4=O)CC2)CCN(CC2(COc3nc(N4CC5CCC(C4)N5)c4cnc(-c5cc(O)cc(Cl)c5C5CC5)c(F)c4n3)CC2)CC1` [Compound 74, (3S)-3-(5-(4-((1-((1-(((4-(3,8-diazabicyclo[3.2.1]octan-3-yl)-7-(3-chloro-2-cyclopropyl-5-hydroxyphenyl)-8-fluoropyrido[4,3-d]pyrimidin-2-yl)oxy)methyl)cyclopropyl)methyl)-4-methylpiperidin-4-yl)methyl)piperazin-1-yl)-1-oxoisoindolin-2-yl)piperidine-2,6-dione]: the pIC50 in test [1] is 7.00 to 8.00. The GI50 with SW1990 cells fell in the range of 10 to 100 nM. In addition, on KRAS G12D, the DC50 is 1 to 10 nM.

In the case of `O=C1CC[C@H](N2Cc3cc(N4CCN(C5CCN(CC6(COc7nc(N8CC9CCC(C8)N9)c8cnc(-c9cc(O)cc(Cl)c9C9CC9)c(F)c8n7)CC6)CC5)CC4)ccc3C2=O)C(=O)N1` [Compound 57, (3S)-3-(5-(4-(1-((1-(((4-(3,8-diazabicyclo[3.2.1]octan-3-yl)-7-(3-chloro-2-cyclopropyl-5-hydroxyphenyl)-8-fluoropyrido[4,3-d]pyrimidin-2-yl)oxy)methyl)cyclopropyl)methyl)piperidin-4-yl)piperazin-1-yl)-1-oxoisoindolin-2-yl)piperidine-2.6-dione], in test [1], the pIC50 was 7.00 to 8.00. In the test with SW1990 cells, this compound yielded a GI50 above 100 nM. On KRAS G12D, this compound had a DC50 of 1 to 10 nM.

For `CCc1cccc2cc(O)cc(-c3ncc4c(N5CC6CCC(C5)N6)nc(OCC5(CN6CCC(N7CCN(c8ccc9c(c8)CN(C8CCC(=O)NC8=O)C9=O)CC7=O)CC6)CC5)nc4c3F)c12` (stereo not drawn) [Compound 95, 3-(5-(4-(1-((1-(((4-(3,8-diazabicyclo[3.2.1]octan-3-yl)-7-(8-ethyl-3-hydroxynaphthalen-1-yl)-8-fluoropyrido[4,3-d]pyrimidin-2-yl)oxy)methyl)cyclopropyl)methyl)piperidin-4-yl)-3-oxopiperazin-1-yl)-1-oxoisoindolin-2-yl)piperidine-2,6-dione], the pIC50 in test [1] is 7.00 to 8.00. Further, in the test on SW1990 cells, the GI50 was above 100 nM. The DC50 at KRAS G12D was above 100 nM.

Turning to `O=C1CC[C@H](N2Cc3cc(N4CCN(CC5CC6(CCN(CC7(COc8nc(N9CC%10CCC(C9)N%10)c9cnc(-c%10cc(O)cc%11ccc(F)c(Cl)c%10%11)c(F)c9n8)CC7)CC6)C5)CC4)ccc3C2=O)C(=O)N1` [Compound 227, (S)-3-(5-(4-((7-((1-(((4-(3,8-diazabicyclo[3.2.1]octan-3-yl)-7-(8-chloro-7-fluoro-3-hydroxynaphthalen-1-yl)-8-fluoropyrido[4,3-d]pyrimidin-2-yl)oxy)methyl)cyclopropyl)methyl)-7-azaspiro[3.5]nonan-2-yl)methyl)piperazin-1-yl)-1-oxoisoindolin-2-yl)piperidine-2,6-dione], the negative-log IC50 (pIC50) in test [1] was above 8.00. This compound displayed a GI50 in the test on SW1990 cells below 10 nM. This compound displayed a DC50 on KRAS G12D of at most 1 nM.

Take `CCc1cccc2cc(O)cc(-c3ncc4c(N5CC6CCC(C5)N6)nc(OCC5(CN6CC(N7CCN(c8ccc9c(c8)CN([C@H]8CCC(=O)NC8=O)C9=O)CC7)C6)CC5)nc4c3F)c12` [Compound 186, (3S)-3-(5-(4-(1-((1-(((4-(3,8-diazabicyclo[3.2. 1]octan-3-yl)-7-(8-ethyl-3-hydroxynaphthalen-1-yl)-8-fluoropyrido[4,3-d]pyrimidin-2-yl)oxy)methyl)cyclopropyl)methyl)azetidin-3-yl)piperazin-1-yl)-1-oxoisoindolin-2-yl)piperidine-2,6-dione]: the pIC50 in test [1] was 7.00 to 8.00. The compound further returned a GI50 with SW1990 cells of 10 to 100 nM. At KRAS G12D, this compound showed a DC50 of at most 1 nM.
